Test results from article PMC7558282, “The Anticancer Activity for the Bumetanide-Based Analogs via Targeting the Tumor-Associated Membrane-Bound Human Carbonic Anhydrase-IX Enzyme” (Pharmaceuticals, 2020).

Assays:
[1] = biological target: hCA-IX (Homo sapiens, UniProt Q16790); assay: colorimetric CA-inhibition assay based on CA-esterase activity, hCA-IX
Method: Based on the kit manufacturer’s protocol, the candidate inhibitors were dissolved in DMSO at 10 × highest final test concentration and specific aliquots of such working dilutions were incubated with the target hCA isozyme for 10 min at room temperature prior to permit the formation of the enzyme-inhibitor complex. Triplicate experiments were performed for each candidate inhibitor concentration. Parallel wells of solvent and enzyme controls were prepared to test the solvent impact upon the activity of the target enzyme. […] Following incubation, the CA-substrate was added and changes in absorbance (at 405 nm) were monitored for 60 min at room temperature within the kinetic mode. The negative enzyme control wells (without added compounds) were arbitrarily set as 100% enzyme activity. […] Absorbance readings from background wells were subtracted from the compound assay wells in order to account for background hydrolysis activity caused by the buffer solution [44, 45].

[2] = test system: A-498 cells; assay: cell cycle analysis (PI, flow cytometry) in A-498; format: cell-based, human; conditions: 6 µM, 48 h
Method: (§1) The efficient antiproliferative activity of compound 9c on the kidney carcinoma A-498 cell line (Table 2) prompted a further investigation of its mechanistic growth inhibitory action. Thus, the impact of bumetanide analog 9c at 6 µM for 48 h on cell cycle distribution and induction of apoptosis in A-498 cells was next explored. […] Analysis of apoptosis was performed to determine the mode of cell death induced by 9c in A-498 cells. Compound 9c induced both early and late apoptosis in A-498 cells at 6 µM when compared to the untreated control cells (p < 0.01 and p < 0.001, respectively) (Figure 5A). […]
Figure 4 (A) Effect of compound 9c on the cell cycle and apoptosis in kidney carcinoma cell line A-498. […] Cells were then fixed, stained with propidium iodide (PI), and analyzed by flow cytometry. […] (B) Quantitative analysis of 4N (G2/M), 2N (G0G1), > 2N (S), and < 2N (sub-G1). DNA content was determined with CellQuest software. […]
(§2) A-498 Cells were seeded at a density of 1 × 10^5 cells/well in 24-well plates and treated with compound 9c (6 µM) for 48 h. […] The DNA content of cells (10,000 cells/experimental group) was analyzed by flow cytometer at 488 nm using a FACSCalibur flow cytometer (BD Biosciences, San Jose, CA, USA) and all data were recorded and analyzed using the CellQuest Software (Becton-Dickinson Biosciences, San Jose, CA, USA). […]

[3] = test system: A-498 cells; assay: Annexin V/PI apoptotic assay in A-498; format: cell-based, human; conditions: 6 µM, 48 h; control 1.3%
Method: as §1
Figure 5 Compound 9c potently induces apoptosis in kidney carcinoma cell line A-498 cells (Annexin V/PI FACS). (A) Effect of compound 9c in A-498 cells analyzed by flow cytometry after double staining of the cells with Annexin-V-FITC and PI. […] (B) Quantitative analysis of apoptosis. […]
as §2

- IC50 ([1]; hCA-IX IC50, three replicate experiments): 4.42 nM
- Selectivity Ratio II/IX ([1]; ratio of IC50 values for isozyme CA-II relative to CA-IX): 72.4
Structure (SMILES): CCCCNc1cc(-c2n[nH]c(=S)n2-c2ccc(Br)cc2)cc(S(N)(=O)=O)c1Oc1ccccc1 [Compound 9c]
- cells in the sub-G1 phase ([2]; control 1.3%): 25.5%
- cell population at the G2/M stage ([2]; untreated control 10.8%): 48.6%
- Annexin V-staining positive cells (total apoptotic cells) [3]: 25.5%
